Structures are written as SMILES.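 1) Cells in 96-well plates. 2) Compound, 48 h, 5 concentrations. 3) Linear interpolation between surrounding doses. 4) Unreached endpoint = highest concentration. Definition used: TGI = concentration required for complete inhibition of growth.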

As a reminder, the TGI is the concentration at which net growth stops. A high value points to less potent growth arrest.

The first test has as its system K-562 leukemia. Put plainly: DTP human tumour cell line panel, 48 h.
The compound `C=C(C)C1CC2(C)C(C)CC(O)CC2C(OC(=O)C=C(C)C)C1O` (configuration not stated) gave a TGI above 100 µM.

The subject of a further test is SR leukemia. The test is described as follows: DTP human tumour cell line panel, 48 h.
For `COC(=O)c1csc([C@@H](OC(=O)[C@H](C)[C@H](CCCC(C)(Cl)Cl)OC(=O)c2csc([C@H](O)CO)n2)C(C)C)n1`, the TGI stood at 32.2 µM.

Regarding `CC(=O)OCC1OC(N2C(C)=C(C(C)=O)C(c3ccc(Cl)cc3)C(C#N)=C2S)C(OC(C)=O)C(OC(C)=O)C1OC(C)=O` (configuration not stated), the TGI was above 100 µM.

On to `C=C(C)C1CC2(C)C(C)CC(O)CC2C(OC(=O)C=C(C)C)C1O` (configuration not stated), for which the TGI is 51.9 µM.

Take `CC1(C)N/C(=C\[N+](=O)[O-])C(C)(C)N1O`: the total growth inhibition concentration (TGI) was above 10 µM.

The subject of another test is HT29 colon. Put plainly: DTP human tumour cell line panel, 48 h.
The compound `COC(=O)c1csc([C@@H](OC(=O)[C@H](C)[C@H](CCCC(C)(Cl)Cl)OC(=O)c2csc([C@H](O)CO)n2)C(C)C)n1` registered a TGI of 36.8 µM.

`CC(=O)OCC1OC(N2C(C)=C(C(C)=O)C(c3ccc(Cl)cc3)C(C#N)=C2S)C(OC(C)=O)C(OC(C)=O)C1OC(C)=O` (configuration not stated) came in with a TGI above 100 µM.

Compound `C=C(C)C1CC2(C)C(C)CC(O)CC2C(OC(=O)C=C(C)C)C1O` (configuration not stated) gave a concentration for total growth inhibition (TGI) of 69.8 µM.

`CC1(C)N/C(=C\[N+](=O)[O-])C(C)(C)N1O` had a TGI above 10 µM.

The next test relates to HOP-92 NSCLC. Put plainly: DTP human tumour cell line panel, 48 h.
In turn, `COC(=O)c1csc([C@@H](OC(=O)[C@H](C)[C@H](CCCC(C)(Cl)Cl)OC(=O)c2csc([C@H](O)CO)n2)C(C)C)n1` came in with a TGI of 23 µM.

Regarding `CC(=O)OCC1OC(N2C(C)=C(C(C)=O)C(c3ccc(Cl)cc3)C(C#N)=C2S)C(OC(C)=O)C(OC(C)=O)C1OC(C)=O` (configuration not stated), the TGI was above 100 µM.

As to `C=C(C)C1CC2(C)C(C)CC(O)CC2C(OC(=O)C=C(C)C)C1O` (configuration not stated), the TGI was above 100 µM.

Consider `CC1(C)N/C(=C\[N+](=O)[O-])C(C)(C)N1O`, for which the TGI is above 10 µM.

The next test concerns ACHN renal. Put plainly: DTP human tumour cell line panel, 48 h.
`COC(=O)c1csc([C@@H](OC(=O)[C@H](C)[C@H](CCCC(C)(Cl)Cl)OC(=O)c2csc([C@H](O)CO)n2)C(C)C)n1` had a TGI of 25.8 µM.

In turn, `CC(=O)OCC1OC(N2C(C)=C(C(C)=O)C(c3ccc(Cl)cc3)C(C#N)=C2S)C(OC(C)=O)C(OC(C)=O)C1OC(C)=O` (configuration not stated) gave a TGI above 100 µM.

`C=C(C)C1CC2(C)C(C)CC(O)CC2C(OC(=O)C=C(C)C)C1O` (configuration not stated) returned a TGI of 52 µM.

As to `CC1(C)N/C(=C\[N+](=O)[O-])C(C)(C)N1O`, the TGI is above 10 µM.

The next test deals with A549 NSCLC. The test is described as follows: DTP human tumour cell line panel, 48 h.
`COC(=O)c1csc([C@@H](OC(=O)[C@H](C)[C@H](CCCC(C)(Cl)Cl)OC(=O)c2csc([C@H](O)CO)n2)C(C)C)n1` returned a TGI of 32.1 µM.

As to `CC(=O)OCC1OC(N2C(C)=C(C(C)=O)C(c3ccc(Cl)cc3)C(C#N)=C2S)C(OC(C)=O)C(OC(C)=O)C1OC(C)=O` (configuration not stated), the TGI was above 100 µM.

For `C=C(C)C1CC2(C)C(C)CC(O)CC2C(OC(=O)C=C(C)C)C1O` (configuration not stated), the TGI is above 100 µM.

Compound `CC1(C)N/C(=C\[N+](=O)[O-])C(C)(C)N1O` registered a TGI above 10 µM.

Another test relates to SF-268 CNS. Put plainly: DTP human tumour cell line panel, 48 h.
`COC(=O)c1csc([C@@H](OC(=O)[C@H](C)[C@H](CCCC(C)(Cl)Cl)OC(=O)c2csc([C@H](O)CO)n2)C(C)C)n1` yielded a TGI of 34.8 µM.

For the compound `CC(=O)OCC1OC(N2C(C)=C(C(C)=O)C(c3ccc(Cl)cc3)C(C#N)=C2S)C(OC(C)=O)C(OC(C)=O)C1OC(C)=O` (configuration not stated), the concentration for total growth inhibition (TGI) is above 100 µM.

`C=C(C)C1CC2(C)C(C)CC(O)CC2C(OC(=O)C=C(C)C)C1O` (configuration not stated) returned a TGI above 100 µM.

For the compound `CC1(C)N/C(=C\[N+](=O)[O-])C(C)(C)N1O`, the total growth inhibition concentration (TGI) was above 10 µM.

A further test deals with M14 melanoma. Put plainly: DTP human tumour cell line panel, 48 h.
As to `COC(=O)c1csc([C@@H](OC(=O)[C@H](C)[C@H](CCCC(C)(Cl)Cl)OC(=O)c2csc([C@H](O)CO)n2)C(C)C)n1`, the TGI came out at 31.6 µM.

Compound `CC(=O)OCC1OC(N2C(C)=C(C(C)=O)C(c3ccc(Cl)cc3)C(C#N)=C2S)C(OC(C)=O)C(OC(C)=O)C1OC(C)=O` (configuration not stated) had a TGI above 100 µM.

For `C=C(C)C1CC2(C)C(C)CC(O)CC2C(OC(=O)C=C(C)C)C1O` (configuration not stated), the TGI is above 100 µM.

`CC1(C)N/C(=C\[N+](=O)[O-])C(C)(C)N1O` gave a TGI above 10 µM.

A further test has as its system SF-539 CNS. Put plainly: DTP human tumour cell line panel, 48 h.
`COC(=O)c1csc([C@@H](OC(=O)[C@H](C)[C@H](CCCC(C)(Cl)Cl)OC(=O)c2csc([C@H](O)CO)n2)C(C)C)n1` displayed a concentration for total growth inhibition (TGI) of 8.62 µM.

The compound `CC(=O)OCC1OC(N2C(C)=C(C(C)=O)C(c3ccc(Cl)cc3)C(C#N)=C2S)C(OC(C)=O)C(OC(C)=O)C1OC(C)=O` (configuration not stated) returned a concentration for total growth inhibition (TGI) above 100 µM.

With `C=C(C)C1CC2(C)C(C)CC(O)CC2C(OC(=O)C=C(C)C)C1O` (configuration not stated), the TGI is above 100 µM.

In turn, `CC1(C)N/C(=C\[N+](=O)[O-])C(C)(C)N1O` came in with a TGI above 10 µM.

In a further test the test system is NCI/ADR-RES ovarian. The test is described as follows: DTP human tumour cell line panel, 48 h.
`COC(=O)c1csc([C@@H](OC(=O)[C@H](C)[C@H](CCCC(C)(Cl)Cl)OC(=O)c2csc([C@H](O)CO)n2)C(C)C)n1` returned a TGI of 45.4 µM.

Compound `CC(=O)OCC1OC(N2C(C)=C(C(C)=O)C(c3ccc(Cl)cc3)C(C#N)=C2S)C(OC(C)=O)C(OC(C)=O)C1OC(C)=O` (configuration not stated) displayed a TGI above 100 µM.

In turn, `C=C(C)C1CC2(C)C(C)CC(O)CC2C(OC(=O)C=C(C)C)C1O` (configuration not stated) came in with a TGI above 100 µM.

The compound `CC1(C)N/C(=C\[N+](=O)[O-])C(C)(C)N1O` gave a total growth inhibition concentration (TGI) above 10 µM.

Another test concerns EKVX NSCLC. The test is described as follows: DTP human tumour cell line panel, 48 h.
For the compound `COC(=O)c1csc([C@@H](OC(=O)[C@H](C)[C@H](CCCC(C)(Cl)Cl)OC(=O)c2csc([C@H](O)CO)n2)C(C)C)n1`, the total growth inhibition concentration (TGI) came to 33.4 µM.

Turning to `C=C(C)C1CC2(C)C(C)CC(O)CC2C(OC(=O)C=C(C)C)C1O` (configuration not stated), the TGI is above 100 µM.

In turn, `CC1(C)N/C(=C\[N+](=O)[O-])C(C)(C)N1O` yielded a TGI above 10 µM.

The test system of a further test is NCI-H460 lung. The test is described as follows: DTP human tumour cell line panel, 48 h.
In the case of `COC(=O)c1csc([C@@H](OC(=O)[C@H](C)[C@H](CCCC(C)(Cl)Cl)OC(=O)c2csc([C@H](O)CO)n2)C(C)C)n1`, the TGI worked out at 23.2 µM.

Consider `CC(=O)OCC1OC(N2C(C)=C(C(C)=O)C(c3ccc(Cl)cc3)C(C#N)=C2S)C(OC(C)=O)C(OC(C)=O)C1OC(C)=O` (configuration not stated), for which the TGI was above 100 µM.

Turning to `C=C(C)C1CC2(C)C(C)CC(O)CC2C(OC(=O)C=C(C)C)C1O` (configuration not stated), the TGI stood at 57.2 µM.

For `CC1(C)N/C(=C\[N+](=O)[O-])C(C)(C)N1O`, the TGI was above 10 µM.

For another test, the system named is NCI-H522 lung. The test is described as follows: DTP human tumour cell line panel, 48 h.
In the case of `COC(=O)c1csc([C@@H](OC(=O)[C@H](C)[C@H](CCCC(C)(Cl)Cl)OC(=O)c2csc([C@H](O)CO)n2)C(C)C)n1`, the TGI came out at 32.9 µM.

`CC(=O)OCC1OC(N2C(C)=C(C(C)=O)C(c3ccc(Cl)cc3)C(C#N)=C2S)C(OC(C)=O)C(OC(C)=O)C1OC(C)=O` (configuration not stated) had a TGI above 100 µM.

The compound `C=C(C)C1CC2(C)C(C)CC(O)CC2C(OC(=O)C=C(C)C)C1O` (configuration not stated) had a TGI above 100 µM.

As for `CC1(C)N/C(=C\[N+](=O)[O-])C(C)(C)N1O`, the TGI was above 10 µM.

In the next test the test system is MDA-N. The test is described as follows: DTP human tumour cell line panel, 48 h.
In turn, `COC(=O)c1csc([C@@H](OC(=O)[C@H](C)[C@H](CCCC(C)(Cl)Cl)OC(=O)c2csc([C@H](O)CO)n2)C(C)C)n1` displayed a TGI of 21.3 µM.

For `CC(=O)OCC1OC(N2C(C)=C(C(C)=O)C(c3ccc(Cl)cc3)C(C#N)=C2S)C(OC(C)=O)C(OC(C)=O)C1OC(C)=O` (configuration not stated), the TGI is above 100 µM.

`C=C(C)C1CC2(C)C(C)CC(O)CC2C(OC(=O)C=C(C)C)C1O` (configuration not stated) gave a TGI above 100 µM.

As for `CC1(C)N/C(=C\[N+](=O)[O-])C(C)(C)N1O`, the TGI is above 10 µM.

Another test has as its system OVCAR-4 ovarian. Put plainly: DTP human tumour cell line panel, 48 h.
Compound `COC(=O)c1csc([C@@H](OC(=O)[C@H](C)[C@H](CCCC(C)(Cl)Cl)OC(=O)c2csc([C@H](O)CO)n2)C(C)C)n1` gave a TGI of 24.5 µM.

Compound `CC(=O)OCC1OC(N2C(C)=C(C(C)=O)C(c3ccc(Cl)cc3)C(C#N)=C2S)C(OC(C)=O)C(OC(C)=O)C1OC(C)=O` (configuration not stated) gave a TGI above 100 µM.

`C=C(C)C1CC2(C)C(C)CC(O)CC2C(OC(=O)C=C(C)C)C1O` (configuration not stated) returned a TGI above 100 µM.

With `CC1(C)N/C(=C\[N+](=O)[O-])C(C)(C)N1O`, the TGI was above 10 µM.

A further test has as its system OVCAR-5 ovarian. Put plainly: DTP human tumour cell line panel, 48 h.
`COC(=O)c1csc([C@@H](OC(=O)[C@H](C)[C@H](CCCC(C)(Cl)Cl)OC(=O)c2csc([C@H](O)CO)n2)C(C)C)n1` gave a TGI of 29 µM.
